Here are results for six molecules from patent publication US11111214B2 (priority 2013, dated 2021).

Structures are written as SMILES.

Data set [1] addresses T1, recombinant human kappa (KOR) opioid receptor (Homo sapiens, UniProt P41145).
T1 construct: expressed in transfected cells; host or cells: CHO-K1 cell membranes
In words: biochemical. The class given is binding.

Data set [2] concerns the target T2, recombinant human mu (MOR) opioid receptor (Homo sapiens, UniProt P35372).
T2 construct: expressed in transfected cells; host or cells: CHO-K1 cell membranes
In words: biochemical. Format: binding. Particulars: for inhibition at 10 µM: read-out: Mu receptor % inhibition at single concentration, % inhibition @ 10 μM.

Data set [3] addresses T3, KOR (kappa opioid receptor) (Homo sapiens, UniProt P41145).
T3 construct: expressed in transfected cells; host or cells: CHO-K1 cells stably expressing KOR
In words: cell-based.

Experiment in data set [4]: not given
This is another data set of the same source.

A short description of data set [5]: in vitro. Particulars: rat, hepatocytes.
A short description of data set [6]: in vitro. The conditions noted are these: human, hepatocytes.

T2 sequence (P35372 whole entry): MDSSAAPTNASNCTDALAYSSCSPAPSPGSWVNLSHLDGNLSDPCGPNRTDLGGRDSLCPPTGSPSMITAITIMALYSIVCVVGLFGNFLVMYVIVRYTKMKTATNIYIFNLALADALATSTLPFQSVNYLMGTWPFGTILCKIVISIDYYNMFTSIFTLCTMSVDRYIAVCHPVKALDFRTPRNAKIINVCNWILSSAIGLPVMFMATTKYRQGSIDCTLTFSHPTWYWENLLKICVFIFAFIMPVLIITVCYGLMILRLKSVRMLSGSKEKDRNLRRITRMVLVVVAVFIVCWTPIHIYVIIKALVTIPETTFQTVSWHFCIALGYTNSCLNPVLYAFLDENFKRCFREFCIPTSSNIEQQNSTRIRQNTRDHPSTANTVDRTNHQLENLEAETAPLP
T1 sequence (P41145 whole entry): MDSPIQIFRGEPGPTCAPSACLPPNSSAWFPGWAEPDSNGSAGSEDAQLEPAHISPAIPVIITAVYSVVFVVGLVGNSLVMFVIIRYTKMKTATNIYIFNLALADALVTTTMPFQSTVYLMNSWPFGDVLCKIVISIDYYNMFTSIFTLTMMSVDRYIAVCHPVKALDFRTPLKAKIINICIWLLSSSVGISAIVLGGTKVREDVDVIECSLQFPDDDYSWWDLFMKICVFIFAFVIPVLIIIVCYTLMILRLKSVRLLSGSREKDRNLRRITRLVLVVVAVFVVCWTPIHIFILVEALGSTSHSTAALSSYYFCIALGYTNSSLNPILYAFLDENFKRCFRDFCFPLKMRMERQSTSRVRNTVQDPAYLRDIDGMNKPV
T3 sequence (P41145 whole entry): as above

With `COCCOCCOCCO[C@H]1CCN(C[C@H](c2ccccc2)N(C)C(=O)Cc2ccc(Cl)c(Cl)c2)C1.Cl` [compound 4, 2-(3,4-Dichlorophenyl)-N-{(1S)-2-[(3S)-3-(2-(2-(2-methoxyethoxy)ethoxy]ethoxy)pyrrolidin-1-yl)-1-phenylethyl}-N-methylacetamide], the “In vitro Hepatocyte Clearance, Rat % hep Blood flow” value came out at 82%. In addition, in data set [1], the IC50 was found to be 8.9 nM and the Ki is 2.1 nM. In addition, in data set [2], the IC50 worked out at 20400 nM and the inhibition at 10 µM worked out at 82%. In data set [3], it took 0.42 nM to reach a half-maximal effect (EC50). For the same molecule, the “In vitro Hepatocyte Clearance, Human % hep Blood flow” value in data set [4] is reported as 84%. Also, the CLhep predicted in “in vitro [5]” is 49 mL/min/kg. Moreover, in the data set “in vitro [6]”, the CLhep predicted is 19.4 mL/min/kg.
In the case of `CN(C(=O)Cc1ccc(Cl)c(Cl)c1)[C@H](CN1CCCC1)c1ccc(OCCO)cc1.Cl` [compound 36, (S)-2-(3,4-dichlorophenyl)-N-(1-(4-(2-hydroxyethoxy)phenyl)-2-(pyrrolidin-1-yl)ethyl)-N-methylacetamide], the “In vitro Hepatocyte Clearance, Rat % hep Blood flow” value came to 24%. In data set [1], the IC50 amounted to 0.43 nM and the Ki was 0.1 nM. Besides, the inhibition at 10 µM in data set [2] is 64.9%. A half-maximal response in data set [3] (EC50) required 0.029 nM. Besides, the “In vitro Hepatocyte Clearance, Human % hep Blood flow” value in data set [4] turned out to be 71%. Besides, the CLhep predicted in the data set “in vitro [5]” is 14.3 mL/min/kg. For the same molecule, the CLhep predicted in “in vitro [6]” was 16.5 mL/min/kg.
`COCCOCCOCCOCCOCCNC(=O)O[C@H]1CCN(C[C@H](c2ccccc2)N(C)C(=O)Cc2ccc(Cl)c(Cl)c2)C1.Cl` [compound 6, (3S)-1-[(2S)-2-{[(3,4-Dichlorophenyl)acetyl](methyl)amino}-2-phenylethyl]pyrrolidin-3-yl 2,5,8,11,14-pentaoxahexadecan-16-ylcarbamate]: the “In vitro Hepatocyte Clearance, Rat % hep Blood flow” value amounted to 81%. Moreover, in data set [1], the half-maximal inhibitory concentration (IC50) was found to be 1100 nM and the Ki was determined as 255 nM. Further, in data set [2], the IC50 was found to be 31200 nM and the inhibition at 10 µM stood at 20.6%. The molecule also showed an EC50 in data set [3] of 56 nM. For the same molecule, the “In vitro Hepatocyte Clearance, Human % hep Blood flow” value in data set [4] was 86%. Further, the CLhep predicted in the data set “in vitro [5]” was 48.8 mL/min/kg. For the same molecule, the CLhep predicted in the data set “in vitro [6]” is 20.1 mL/min/kg.
Consider `CN(C(=O)Cc1ccc(Cl)c(Cl)c1)[C@H](CN1CCCC1)c1cccc(NS(=O)(=O)CCOCC(F)(F)F)c1.Cl` [compound 19, 2-(3,4-dichlorophenyl)-N-methyl-N-{(1S)-2-(pyrrolidin-1-yl)-1-[3-({[2-(2,2,2-trifluoroethoxy)ethyl]sulfonyl}amino)phenyl]ethyl}acetamide], for which the “In vitro Hepatocyte Clearance, Rat % hep Blood flow” value worked out at 45%. Moreover, in data set [1], the IC50 is 0.69 nM and the Ki came to 0.16 nM. The inhibition at 10 µM in data set [2] turned out to be 99.1%. Moreover, a half-maximal response in data set [3] (EC50) required 0.08 nM. For the same molecule, the “In vitro Hepatocyte Clearance, Human % hep Blood flow” value in data set [4] is 50%. Moreover, in the data set “in vitro [5]”, the CLhep predicted is 26.8 mL/min/kg. Also, in the data set “in vitro [6]”, the CLhep predicted was 11.7 mL/min/kg.
Take `CCN(CCOC)C[C@H](c1ccccc1)N(C)C(=O)Cc1ccc(Cl)c(Cl)c1.Cl` [compound 10, 2-(3,4-Dichlorophenyl)-N-{(1S)-2-[ethyl(2-methoxyethyl)amino]-1-phenylethyl}-N-methylacetamide]: the “In vitro Hepatocyte Clearance, Rat % hep Blood flow” value is on record as 83%. In data set [1], the IC50 was determined as 82.7 nM and the Ki worked out at 19.1 nM. In data set [2], the inhibition at 10 µM amounted to 82.8%. For the same molecule, a half-maximal effect in data set [3] (EC50) was put at 3.1 nM. Further, the “In vitro Hepatocyte Clearance, Human % hep Blood flow” value in data set [4] is recorded as 89%. Further, in the data set “in vitro [5]”, the CLhep predicted is 49.7 mL/min/kg. The CLhep predicted in the data set “in vitro [6]” is 20.6 mL/min/kg.
`COCCOCCOCCNC(=O)O[C@H]1CCN(C[C@H](c2ccccc2)N(C)C(=O)Cc2ccc(Cl)c(Cl)c2)C1.Cl` [compound 5, (3S)-1-[(2S)-2-{[(3,4-Dichlorophenyl)acetyl](methyl)amino}-2-phenylethyl]pyrrolidin-3-yl {2-[2-(2-methoxyethoxy)ethoxy]ethyl}carbamate]: the “In vitro Hepatocyte Clearance, Rat % hep Blood flow” value amounted to 82%. In addition, in data set [1], the half-maximal inhibitory concentration (IC50) was 1190 nM and the Ki is 275 nM. Besides, the inhibition at 10 µM in data set [2] is 35.6%. In data set [3], this molecule showed an EC50 of 75.7 nM. For the same molecule, in data set [4], the “In vitro Hepatocyte Clearance, Human % hep Blood flow” value worked out at 88%. Further, the CLhep predicted in the data set “in vitro [5]” is 49.1 mL/min/kg. Also, the CLhep predicted in the data set “in vitro [6]” is 20.4 mL/min/kg.
